Reference: patent US20080306166A1, “Compositions and Methods For Treatment of Disorders of Protein Aggregation” (priority 2004, published 2008)
“Also recorded” adds a separate entry of the source.

Key:
Format in all cases: in vivo, mouse
TgCRND8 mice [1] = assay: Morris Water Maze spatial reference memory test in TgCRND8 mice; conditions: six month old TgCRND8 mice, 28 days treatment from 5 months
Method: Mice. […] This initial dosage was chosen based upon the dosage of myo-cyclohexanehexyl (6-18 grams/day/adult or 86-257 mg/Kg/day) that is typically administered to human patients for various psychiatric disorders. […] A cohort of animals (n=10 mice per treatment arm) entered the study at five months of age, and outcomes were then analyzed after one month of treatment. The body weight, coat characteristics and in cage behaviour were monitored. Mannitol was used as a negative control for potential alterations in caloric intake. All experiments were performed according to the Canadian Council on Animal Care guidelines. Behavioural tests: Morris Water Maze testing was performed as previously described. After non-spatial pre-training, mice underwent place discrimination training for 5 days with 4-trials per day, followed by a cued visible platform to rule out general motivational, learning deficits and motor problems, and a probe trial to evaluate memory. […] Open field test for motor activity was preformed as described previously. Duration of walking, pausing and grooming were analyzed as indices of spontaneous locomotor activity. Sensorimotor function was examined with an Economex™ accelerating rotarod (Columbus Instruments, Columbus, Ohio), as described elsewhere. The rod was set to accelerate at a rate of 0.2 r.p.m./s, from an initial, constant speed of 5 r.p.m. Latency to fall was recorded in four daily trials, conducted at 30 min intervals. All mice were trained for seven days before testing. The test day performance score for each animal was obtained by summing its latency to fall over the four trials. Cerebral amyloid burden. Brains were removed and one hemisphere was fixed in 4% paraformaldehyde and embedded in paraffin wax in the mid sagittal plane. To generate sets of systematic uniform random sections, 5 μm serial sections were collected across the entire hemisphere. Sets of sections at 50 μm intervals were used for analyses (10-14 sections/set). Plaques were identified after antigen retrieval with formic acid, and incubation with primary anti-AD antibody (Dako M-0872), followed by secondary antibody (Dako StreptABCcomplex/horseradish kit). End products were visualized with DAB and were counter-stained with luxol fast blue. Amyloid plaque burden was assessed with Leco IA-3001 image analysis software interfaced with Leica microscope and Hitachi KP-M1U CCD video camera. Openlab imaging software (Improvision, Lexington, Mass.) was then used to convert micrographs to binary images for plaque number and plaque area determinations. Vascular amyloid burden was defined as amyloid originating from or surrounding blood vessels and was analysed similarly. Plasma and Cerebral Aβ Content. Hemi-brain samples were homogenized in a buffered sucrose solution, followed by either 0.4% diethylamine/100 mM NaCl for soluble Aβ levels or cold formic acid for the isolation of total Aβ. After neutralization, the samples were diluted and analyzed for Aβ40 and Aβ42 using commercially available kits (BIOSOURCE International). Each hemisphere was analyzed intriplicate and the mean values ±SEM reported. Western blot analyses were performed on all fractions using urea gels for Aβ species analyses. Aβ was detected using 6E10 (BIOSOURCE International) and Enhanced Chemiluminenscence (Amersham). Gliosis Quantitation. Five randomly selected, evenly spaced, sagittal sections were collected from paraformaldehyde-fixed and frozen hemispheres of treated and control mice. […]

TgCRND8 mice [2] = assay: Cerebral amyloid plaque burden (anti-Aβ immunostaining, image analysis)
Method: Mice. […] This initial dosage was chosen based upon the dosage of myo-cyclohexanehexyl (6-18 grams/day/adult or 86-257 mg/Kg/day) that is typically administered to human patients for various psychiatric disorders. […] A cohort of animals (n=10 mice per treatment arm) entered the study at five months of age, and outcomes were then analyzed after one month of treatment. The body weight, coat characteristics and in cage behaviour were monitored. Mannitol was used as a negative control for potential alterations in caloric intake. All experiments were performed according to the Canadian Council on Animal Care guidelines. Behavioural tests: Morris Water Maze testing was performed as previously described. After non-spatial pre-training, mice underwent place discrimination training for 5 days with 4-trials per day, followed by a cued visible platform to rule out general motivational, learning deficits and motor problems, and a probe trial to evaluate memory. […] Open field test for motor activity was preformed as described previously. Duration of walking, pausing and grooming were analyzed as indices of spontaneous locomotor activity. Sensorimotor function was examined with an Economex™ accelerating rotarod (Columbus Instruments, Columbus, Ohio), as described elsewhere. The rod was set to accelerate at a rate of 0.2 r.p.m./s, from an initial, constant speed of 5 r.p.m. Latency to fall was recorded in four daily trials, conducted at 30 min intervals. All mice were trained for seven days before testing. The test day performance score for each animal was obtained by summing its latency to fall over the four trials. Cerebral amyloid burden. Brains were removed and one hemisphere was fixed in 4% paraformaldehyde and embedded in paraffin wax in the mid sagittal plane. To generate sets of systematic uniform random sections, 5 μm serial sections were collected across the entire hemisphere. Sets of sections at 50 μm intervals were used for analyses (10-14 sections/set). Plaques were identified after antigen retrieval with formic acid, and incubation with primary anti-AD antibody (Dako M-0872), followed by secondary antibody (Dako StreptABCcomplex/horseradish kit). End products were visualized with DAB and were counter-stained with luxol fast blue. Amyloid plaque burden was assessed with Leco IA-3001 image analysis software interfaced with Leica microscope and Hitachi KP-M1U CCD video camera. Openlab imaging software (Improvision, Lexington, Mass.) was then used to convert micrographs to binary images for plaque number and plaque area determinations. Vascular amyloid burden was defined as amyloid originating from or surrounding blood vessels and was analysed similarly. Plasma and Cerebral Aβ Content. Hemi-brain samples were homogenized in a buffered sucrose solution, followed by either 0.4% diethylamine/100 mM NaCl for soluble Aβ levels or cold formic acid for the isolation of total Aβ. After neutralization, the samples were diluted and analyzed for Aβ40 and Aβ42 using commercially available kits (BIOSOURCE International). Each hemisphere was analyzed intriplicate and the mean values ±SEM reported. Western blot analyses were performed on all fractions using urea gels for Aβ species analyses. Aβ was detected using 6E10 (BIOSOURCE International) and Enhanced Chemiluminenscence (Amersham). Gliosis Quantitation. Five randomly selected, evenly spaced, sagittal sections were collected from paraformaldehyde-fixed and frozen hemispheres of treated and control mice. Sections were immunolabelled for astrocytes with anti-rat GFAP IgG2a, (Dako; diluted 1:50) and for microglia with anti-rat CD68 IgG2b (Dako; 1:50).

Aβ42 = biological target: T1, Aβ42 (Homo sapiens, UniProt P05067); assay: Plasma Aβ42 levels; conditions: TgCRND8 mice, 28 days of therapy at five months of age
T1 construct: analyzed for Aβ40 and Aβ42 using commercially available kits; from tissue; host or cells: TgCRND8 transgenic mice: hemi-brain (A3) and plasma (A5)
T1 sequence (P05067 672-713): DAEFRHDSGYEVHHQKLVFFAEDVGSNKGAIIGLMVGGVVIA
Method: Mice. […] This initial dosage was chosen based upon the dosage of myo-cyclohexanehexyl (6-18 grams/day/adult or 86-257 mg/Kg/day) that is typically administered to human patients for various psychiatric disorders. […] A cohort of animals (n=10 mice per treatment arm) entered the study at five months of age, and outcomes were then analyzed after one month of treatment. The body weight, coat characteristics and in cage behaviour were monitored. Mannitol was used as a negative control for potential alterations in caloric intake. All experiments were performed according to the Canadian Council on Animal Care guidelines. Behavioural tests: Morris Water Maze testing was performed as previously described. […] Duration of walking, pausing and grooming were analyzed as indices of spontaneous locomotor activity. […] Latency to fall was recorded in four daily trials, conducted at 30 min intervals. […] Amyloid plaque burden was assessed with Leco IA-3001 image analysis software interfaced with Leica microscope and Hitachi KP-M1U CCD video camera. […] Vascular amyloid burden was defined as amyloid originating from or surrounding blood vessels and was analysed similarly. […] After neutralization, the samples were diluted and analyzed for Aβ40 and Aβ42 using commercially available kits (BIOSOURCE International). Each hemisphere was analyzed intriplicate and the mean values ±SEM reported. […] Gliosis Quantitation. […]

[3] = TgCRND8 mice, oral, 28 days from 5 months of age, 6 months of age, listed as Epi-cyclohexanehexol

## OC1C(O)C(O)C(O)C(O)C1O (stereo not drawn) [epi-cyclohexanehexyl, 1,2,3,4,5/6-(epi-) cyclohexanehexyl, reference compound]
TgCRND8 mice [1]
  spatial learning performance compared to non-Tg littermates: significantly poorer than the performance of their non-Tg littermates; also recorded: remained impaired with respect to non-Tg littermates
  spatial learning performance compared to untreated TgCRND8 littermates: not significantly different from that of untreated TgCRND8 littermates
TgCRND8 mice [2]; TgCRND8 mice with pre-existing disease, 28 days
  impact on brain Aβ40 or Aβ42 levels, percent area of the brain covered with plaques, or plaque number: no significant impact
TgCRND8 mice [2]; [3]
  Mean Plaque Size: 346 ± 6 μm^2
  Total Plaque Area: 459706 ± 49966 μm^2
  Total Plaque Count: 1342 ± 114
Aβ42
  Plasma Aβ42 levels: 1079 ± 79 pg/mL
